Reference: PMC9905048 (Bioorganic & Medicinal Chemistry Letters, 2023)
Read-outs that look alike come from different tables or passages of the source.

Legend:
[1] = tested on: SARS-CoV-2 (hCoV-19/Korea/KCDC-06/2020); assay: Cell-based antiviral assay against SARS-CoV-2 in Vero cells; settings: ratio of EC50, in vitro
Flu B/Lee/40 (Lee) = assay: Cell-based antiviral assay against Flu B in MDCK cells; set-up: species or system influenza B virus
[2] = tested on: DENV-2 replicon BHK-21 (DENV2-BHK) cells; assay type: cell-based
[3] = tested on: cells of the SARS-CoV-2, Flu A/B and DENV-2 assays
[4] = in vitro, summary for SARS-CoV-2, Flu A/B and DENV-2 assays

## CC(C)C(=O)ONc1ccn([C@@H]2O[C@H](CO)[C@@H](O)[C@H]2O)c(=O)n1 [8a, β-D-N^4-O-isobutyrylcytidine]
[1]
  potency against SARS-CoV-2 compared to NHC (1): > 5 fold
Flu B/Lee/40 (Lee)
  potency (EC50) against Flu B compared with T-705 and amantadine (AMT): about 2 fold
[2]
  potency (EC50) against DENV-2 compared with T-705 and amantadine (AMT): about 2 fold

## C4-2‑hydroxylethyl cytidine [8c]
[3]; [4]
  cell cytotoxicity: > 100 µM

## Cl.NNc1ccn([C@@H]2O[C@H](CO)[C@@H](O)[C@H]2O)c(=O)n1 [compound 9, N ^4-aminocytidine]
[3]; African green monkey (Vero), hamster (BHK-21), dog (MDCK)
  cell cytotoxicity: > 100 µM

## CC(C)(C)OC(=O)NNc1ccn([C@@H]2O[C@H](CO)[C@@H](O)[C@H]2O)c(=O)n1 [8b, C4-Boc-hyrazinyl cytidine]
[3]; [4]
  cell cytotoxicity: > 100 µM
